In PubChem BioAssay AID264 (DTP/NCI, 2004):
“And” between values parts separate entries of the source, which are not always exact repeats. Equal entries are not always repeated. Results filed as inconclusive are left out.

Tested on: nude mice, LX-1 lung xenograft intrarenal, tumor weight T/C
Assay: NCI In Vivo Anticancer Drug Screen. Data for tumor model Human Lung LX-1 Xenograft (intrarenal inoculation) in NU/NU Swiss (nude) mice
Conditions: endpoint: mean tumor weight change, higher = larger tumour
Summary of the method: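 Antitumor effect is expressed as a ratio: the mean tumor measurement of the drug-treated group relative to that of the vehicle-dosed control group.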

[1] = dose: 100.0 mg/kg/injection, schedule: Q04DX003 (sc), vehicle: Klucel (hydroxypropylcellulose) (HPC)
[2] = dose: 200.0 mg/kg/injection, schedule: Q04DX003 (sc), vehicle: Klucel (hydroxypropylcellulose) (HPC)
[3] = dose: 300.0 mg/kg/injection, schedule: Q04DX003 (sc), vehicle: saline with Tween-80
[4] = dose: 600.0 mg/kg/injection, schedule: Q04DX003 (sc), vehicle: saline with Tween-80
[5] = dose: 1200.0 mg/kg/injection, schedule: Q04DX003 (sc), vehicle: saline with Tween-80
[6] = dose: 2400.0 mg/kg/injection, schedule: Q04DX003 (sc), vehicle: saline with Tween-80
[7] = dose: 1200.0 mg/kg/injection, schedule: Q04DX003 (sc), vehicle: Klucel (hydroxypropylcellulose) (HPC)
[8] = dose: 2400.0 mg/kg/injection, schedule: Q04DX003 (sc), vehicle: Klucel (hydroxypropylcellulose) (HPC)
[9] = dose: 25.0 mg/kg/injection, schedule: Q01DX010 (sc), vehicle: saline with Tween-80
[10] = dose: 100.0 mg/kg/injection, schedule: Q04DX003 (sc), vehicle: saline
[11] = dose: 50.0 mg/kg/injection, schedule: Q01DX010 (sc), vehicle: saline with Tween-80

## O=C(C#Cc1ccccc1)c1ccccc1
dose: 18.75 mg/kg/injection, schedule: Q04DX003 (sc), vehicle: Klucel (hydroxypropylcellulose) (HPC)
  T/C: 87 % of control
dose: 25.0 mg/kg/injection, schedule: Q04DX003 (sc), vehicle: Klucel (hydroxypropylcellulose) (HPC)
  T/C: 111 % of control
dose: 37.5 mg/kg/injection, schedule: Q04DX003 (sc), vehicle: Klucel (hydroxypropylcellulose) (HPC)
  T/C: 96 % of control
dose: 50.0 mg/kg/injection, schedule: Q04DX003 (sc), vehicle: Klucel (hydroxypropylcellulose) (HPC)
  T/C: 90 % of control
dose: 75.0 mg/kg/injection, schedule: Q04DX003 (sc), vehicle: Klucel (hydroxypropylcellulose) (HPC)
  T/C: 105 % of control
[1]
  T/C: 113 % of control
dose: 150.0 mg/kg/injection, schedule: Q04DX003 (sc), vehicle: Klucel (hydroxypropylcellulose) (HPC)
  T/C: 65 % of control
[2]
  T/C: 81 % of control

## OCC1OC(n2cnc3cc(Cl)c(Cl)cc32)C(O)C1O (stereo not given)
[3]
  T/C: 112 % of control
[4]
  T/C: 86 % of control
[5]
  T/C: 94 % of control
[6]
  T/C: 72 % of control

## CCOC(=O)CNC(=O)CCCCSc1ncnc2nc[nH]c12
[3]
  T/C: 80 % of control
[4]
  T/C: 86 % of control
[5]
  T/C: 85 % of control
[6]
  T/C: 114 % of control

## CCCCCCCCCCCCCCC/C([O-])=N/[N+](C)(C)CC(C)O (stereo not given)
[1]
  T/C: 66 % of control
[2]
  T/C: 54 % of control
dose: 400.0 mg/kg/injection, schedule: Q04DX003 (sc), vehicle: Klucel (hydroxypropylcellulose) (HPC)
  T/C: 103 % of control
dose: 800.0 mg/kg/injection, schedule: Q04DX003 (sc), vehicle: Klucel (hydroxypropylcellulose) (HPC)
  T/C: 77 % of control
[7]
  T/C: 77 % of control
[8]
  T/C: 69 % of control

## CN=S(=O)(OCCCCCOS(=O)(=NC)c1ccccc1)c1ccccc1 (stereo not given)
dose: 200.0 mg/kg/injection, schedule: Q04DX003 (sc), vehicle: saline with Tween-80
  T/C: 36 % of control
dose: 400.0 mg/kg/injection, schedule: Q04DX003 (sc), vehicle: saline with Tween-80
  T/C: 77 % of control
dose: 800.0 mg/kg/injection, schedule: Q04DX003 (sc), vehicle: saline with Tween-80
  T/C: 57 % of control

## O=[N+]([O-])c1ccc(N2CCOCC2)c2c1no[n+]2[O-]
dose: 150.0 mg/kg/injection, schedule: Q04DX003 (sc), vehicle: saline with Tween-80
  T/C: 101 % of control
[3]
  T/C: 57 % of control
[4]
  T/C: 77 % of control
[5]
  T/C: 98 % of control

## NC(=S)N/N=C\c1ncccc1OCc1cccc(N)c1
[3]
  T/C: 158 % of control
[4]
  T/C: 159 % of control
[5]
  T/C: 105 % of control
[6]
  T/C: 96 % of control

## Nc1cccc(=O)[nH]1
dose: 300.0 mg/kg/injection, schedule: Q04DX003 (sc), vehicle: saline
  T/C: 100 % of control
dose: 600.0 mg/kg/injection, schedule: Q04DX003 (sc), vehicle: saline
  T/C: 110 % of control
dose: 1200.0 mg/kg/injection, schedule: Q04DX003 (sc), vehicle: saline
  T/C: 105 % of control

## CCCCNC(C)[C@]1(O)Cc2c(O)c3c(c(O)c2[C@@H](OC2CC(N)C(O)C(C)O2)C1)C(=O)c1c(OC)cccc1C3=O (stereo not given in full)
dose: 6.25 mg/kg/injection, schedule: Q01DX010 (sc), vehicle: saline
  T/C: 69 % of control
dose: 12.5 mg/kg/injection, schedule: Q01DX010 (sc), vehicle: saline
  T/C: 68 % of control

## CC(C)CCCCCCCCCCCCC(=O)NCC(=O)NC1C(C)OC(Nc2ncnc3nc[nH]c23)C(O)C1O (stereo not given)
dose: 4.0 mg/kg/injection, schedule: Q01DX010 (sc), vehicle: distilled water + Tween-80
  T/C: 31 % of control and 33 % of control
dose: 8.0 mg/kg/injection, schedule: Q01DX010 (sc), vehicle: distilled water + Tween-80
  T/C: 24 % of control
dose: 32.0 mg/kg/injection, schedule: Q01DX010 (sc), vehicle: distilled water + Tween-80
  T/C: 28 % of control

## NC1=NCN(C2OC(CO)C(O)C2O)C(=O)N1 (stereo not given)
dose: 25.0 mg/kg/injection, schedule: Q01DX010 (sc), vehicle: saline
  T/C: 117 % of control
dose: 50.0 mg/kg/injection, schedule: Q01DX010 (sc), vehicle: saline
  T/C: 174 % of control
dose: 83.3 mg/kg/injection, schedule: Q04DX003 (ip), vehicle: saline
  T/C: 117 % of control
dose: 100.0 mg/kg/injection, schedule: Q01DX010 (ip), vehicle: saline
  T/C: 62 % of control
dose: 100.0 mg/kg/injection, schedule: Q01DX010 (sc), vehicle: saline
  T/C: 86 % of control
dose: 166.66 mg/kg/injection, schedule: Q04DX003 (ip), vehicle: saline
  T/C: 89 % of control
dose: 333.33 mg/kg/injection, schedule: Q04DX003 (ip), vehicle: saline
  T/C: 56 % of control
dose: 666.65 mg/kg/injection, schedule: Q04DX003 (ip), vehicle: saline
  T/C: 39 % of control

## CC(C)[NH-].CC(C)[NH-].[Cl][Pt+2][Cl]
dose: 25.0 mg/kg/injection, schedule: Q01DX010 (sc), vehicle: dextrose
  T/C: 48 % of control
dose: 50.0 mg/kg/injection, schedule: Q01DX010 (sc), vehicle: dextrose
  T/C: 50 % of control
dose: 100.0 mg/kg/injection, schedule: Q01DX010 (sc), vehicle: dextrose
  T/C: 71 % of control

## COc1ccc2c(NCCCCCCNc3c4ccccc4nc4cc(OC)ccc34)c3ccccc3nc2c1
dose: 1.25 mg/kg/injection, schedule: Q01DX010 (sc), vehicle: lactic acid
  T/C: 105 % of control
dose: 2.5 mg/kg/injection, schedule: Q01DX010 (sc), vehicle: lactic acid
  T/C: 100 % of control
dose: 10.0 mg/kg/injection, schedule: Q01DX010 (sc), vehicle: lactic acid
  T/C: 48 % of control

## C1CN2CCC1CC2
dose: 4.69 mg/kg/injection, schedule: Q04DX003 (sc), vehicle: saline with Tween-80
  T/C: 96 % of control
dose: 9.38 mg/kg/injection, schedule: Q04DX003 (sc), vehicle: saline with Tween-80
  T/C: 73 % of control
dose: 18.75 mg/kg/injection, schedule: Q04DX003 (sc), vehicle: saline with Tween-80
  T/C: 68 % of control

## CN(N=O)C(N)=O
dose: 12.5 mg/kg/injection, schedule: Q01DX010 (sc), vehicle: saline with Tween-80
  T/C: -64 % of control
dose: 12.5 mg/kg/injection, schedule: Q04DX003 (sc), vehicle: saline
  T/C: 19 % of control
[9]
  T/C: -69 % of control
dose: 25.0 mg/kg/injection, schedule: Q04DX003 (sc), vehicle: saline
  T/C: 7 % of control
dose: 50.0 mg/kg/injection, schedule: Q04DX003 (sc), vehicle: saline
  T/C: 12 % of control
[10]
  T/C: 1 % of control

## C[CH2][Sn]([CH2]C)([CH2]C(=O)OC)[CH2]C(=O)OC
dose: 6.25 mg/kg/injection, schedule: Q04DX003 (sc), vehicle: saline with Tween-80
  T/C: 97 % of control
dose: 12.5 mg/kg/injection, schedule: Q04DX003 (sc), vehicle: saline with Tween-80
  T/C: 92 % of control
dose: 25.0 mg/kg/injection, schedule: Q04DX003 (sc), vehicle: saline with Tween-80
  T/C: 70 % of control

## CSc1cc(C)[o+]c(C)c1
[1]
  T/C: 87 % of control
[2]
  T/C: 76 % of control

## NCCc1cc(O)c(O)c(O)c1
[10]
  T/C: 83 % of control
dose: 200.0 mg/kg/injection, schedule: Q04DX003 (sc), vehicle: saline
  T/C: 96 % of control
dose: 800.0 mg/kg/injection, schedule: Q04DX003 (sc), vehicle: saline
  T/C: 91 % of control

## OCC1OC(n2cnc3c(NO)ncnc32)C(O)C1O (stereo not given)
dose: 300.0 mg/kg/injection, schedule: Q04DX003 (sc), vehicle: Klucel (hydroxypropylcellulose) (HPC)
  T/C: 105 % of control
dose: 600.0 mg/kg/injection, schedule: Q04DX003 (sc), vehicle: Klucel (hydroxypropylcellulose) (HPC)
  T/C: 102 % of control
[7]
  T/C: 86 % of control
[8]
  T/C: 68 % of control

## ClCC[N+]12CC[N+](CCCl)(CC1)C2
[11]
  T/C: 42 % of control and 56 % of control
dose: 400.0 mg/kg/injection, schedule: Q01DX010 (sc), vehicle: saline with Tween-80
  T/C: 24 % of control
dose: 600.0 mg/kg/injection, schedule: Q04DX003 (sc), vehicle: water
  T/C: 54 % of control

## N#C[C@H](OC1OC(COC2OC(CO)C(O)C(O)C2O)C(O)C(O)C1O)c1ccccc1 (stereo not given in full)
dose: 900.0 mg/kg/injection, schedule: Q04DX003 (sc), vehicle: suspension in saline
  T/C: 82 % of control
dose: 1800.0 mg/kg/injection, schedule: Q04DX003 (sc), vehicle: suspension in saline
  T/C: 123 % of control

## O=c1nc(Oc2ccccc2)nc2ncccn12
[9]
  T/C: 190 % of control
[11]
  T/C: 165 % of control
dose: 100.0 mg/kg/injection, schedule: Q01DX010 (sc), vehicle: saline with Tween-80
  T/C: 118 % of control
dose: 200.0 mg/kg/injection, schedule: Q01DX010 (sc), vehicle: saline with Tween-80
  T/C: 210 % of control
